Measured values: patent US12336981B2, “Compounds and compositions for the inhibition of NAMPT” (Valo Health, Inc., priority 2010, dated 2025)
Like-named read-outs stand apart in the source and are kept apart here.

Assays:
NAMPT = target: T1, NAMPT (Homo sapiens, UniProt P43490); test: Biochemical inhibition assay: NAMPT enzymatic reaction, NMN quantified by mass spectrometry; details: read-out: Biochem IC50
T1 construct: His tag; host or cells: E. coli
Summary of the method: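 Inhibition of E. coli-expressed His-tagged human NAMPT, measured as NMN formation by mass spectrometry after a 30 min room-temperature reaction containing 1 μM NAM, 100 μM PRPP and 2.5 mM ATP.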

A2780 cells = test: In-vitro cell proliferation assay (SRB), A2780 cells; format: cell-based; details: Homo sapiens, A2780, 72 h, A2780 cells, 72 hours, read-out: A2780 IC50
Summary of the method: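 Proliferation is assessed by sulforhodamine B staining following a 72-hour incubation with compound dilutions containing 0.1% DMSO.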

T1 sequence (P43490 whole entry): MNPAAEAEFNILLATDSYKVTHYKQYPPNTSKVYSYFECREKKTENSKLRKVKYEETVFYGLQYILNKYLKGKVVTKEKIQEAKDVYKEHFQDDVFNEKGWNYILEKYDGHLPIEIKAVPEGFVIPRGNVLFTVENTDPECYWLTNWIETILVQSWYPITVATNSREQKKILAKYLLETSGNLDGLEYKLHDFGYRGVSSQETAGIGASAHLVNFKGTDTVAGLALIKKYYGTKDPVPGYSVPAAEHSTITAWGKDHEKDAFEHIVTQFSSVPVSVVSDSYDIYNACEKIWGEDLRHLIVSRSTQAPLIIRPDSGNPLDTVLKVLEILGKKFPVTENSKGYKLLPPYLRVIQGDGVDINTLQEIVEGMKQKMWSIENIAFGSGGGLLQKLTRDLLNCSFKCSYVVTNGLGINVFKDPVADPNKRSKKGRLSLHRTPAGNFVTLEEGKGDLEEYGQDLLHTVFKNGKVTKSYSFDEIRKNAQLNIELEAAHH

SMILES | IC50 (NAMPT; NAMPT enzymatic assay) | IC50 (A2780 cells; SRB) | IC50 (NAMPT; NAMPT enzymatic reaction) | IC50 (A2780 cells; SRB assay)
O=C(NCc1ccc(S(=O)(=O)c2cncc(N3CCCC3)c2)cc1)c1cc2ccncc2o1 [N-({4-[5-(pyrrolidin-1-yl)pyridine-3-sulfonyl]phenyl}methyl)furo[2,3-c]pyridine-2-carboxamide] | 22.8 nM | 4.9 nM |  | 
CSc1ccc(S(=O)(=O)c2ccc(CNC(=O)c3ccc4nccn4c3)cc2)cc1F | 5.6 nM | 2.7 nM |  | 
O=C(NCc1ccc(S(=O)(=O)c2ccccc2)cc1)c1ccc2scnc2c1 [N-(4-(phenylsulfonyl)benzyl)benzo[d]thiazole-5-carboxamide] |  |  | 47 nM | 3870 nM
O=C(NCc1ccc(S(=O)(=O)c2cccc3c2oc2ccccc23)cc1)c1cc2ccncc2o1 | 12.4 nM | 12.8 nM |  | 
CCOCc1ccccc1S(=O)(=O)c1ccc(CNC(=O)c2cc3cnccc3[nH]2)cc1 | 18.5 nM | 6.7 nM |  | 
CCCCOc1cc(F)ccc1S(=O)(=O)c1ccc(CNC(=O)c2cc3cnccc3[nH]2)cc1 |  | 5.5 nM | 31.1 nM | 
COc1ccc(F)cc1NS(=O)(=O)c1ccc(CNC(=O)c2ccc3ncccc3c2)cc1 [N-({4-[(5-fluoro-2-methoxyphenyl)sulfamoyl]phenyl}methyl)quinoline-6-carboxamide] | 66 nM | 1000 to 10000 nM |  | 
O=C(NCc1ccc(S(=O)(=O)c2cccc(N3CCOCC3)c2)cc1)c1cnc2nccn2c1 | 2.7 nM | 13.5 nM |  | 
O=C(NCc1ccc(NS(=O)(=O)c2ccccc2OC(F)(F)F)cc1)c1cc2cnccc2[nH]1 [N-[(4-{[2-(trifluoromethoxy)benzene]sulfonamido}phenyl)methyl]-1H-pyrrolo[3,2-c]pyridine-2-carboxamide] |  |  | 3 nM | 1 nM
Cc1c(F)cccc1S(=O)(=O)c1ccc(CNC(=O)c2cnc3nccn3c2)cc1 |  | 65.6 nM | 8.1 nM | 
CC(=O)c1ccc(S(=O)(=O)c2ccc(CNC(=O)c3cc4ccncc4s3)cc2)cc1 [N-({4-[(4-acetylbenzene)sulfonyl]phenyl}methyl)thieno[2,3-c]pyridine-2-carboxamide] |  |  | 4 nM | 2.5 nM
COc1cc(C(F)(F)F)ccc1S(=O)(=O)c1ccc(CNC(=O)c2cc3cnccc3[nH]2)cc1 [N-[(4-{[2-methoxy-4-(trifluoromethyl)benzene]sulfonyl}phenyl)methyl]-1H-pyrrolo[3,2-c]pyridine-2-carboxamide] |  |  | 22 nM | 5 nM
COCc1cccc(S(=O)(=O)c2ccc(CNC(=O)c3cc4cnccc4[nH]3)cc2)c1 [N-[(4-{[3-(methoxymethyl)benzene]sulfonyl}phenyl)methyl]-1H-pyrrolo[3,2-c]pyridine-2-carboxamide] | 20.2 nM | 12.8 nM |  | 
CC(C)Oc1cccc(S(=O)(=O)c2ccc(CNC(=O)c3cc4ccncc4s3)cc2)c1F | 4.7 nM | 6.6 nM |  | 
O=C(NCc1ccc(S(=O)(=O)c2cc(F)ccc2Cl)cc1)c1cc2cnccc2[nH]1 |  | 12.1 nM | 28.1 nM | 
Cc1cc(Cl)ccc1S(=O)(=O)c1ccc(CNC(=O)c2cnc3[nH]ncc3c2)cc1 [N-({4-[(4-chloro-2-methylbenzene)sulfonyl]phenyl}methyl)-1H-pyrazolo[3,4-b]pyridine-5-carboxamide] |  | 58.7 nM | 77.5 nM | 
COc1ccc(C)cc1S(=O)(=O)c1ccc(CNC(=O)c2cc3ccncc3s2)cc1 [N-({4-[(2-methoxy-5-methylbenzene)sulfonyl]phenyl}methyl)thieno[2,3-c]pyridine-2-carboxamide] |  |  | 6 nM | 2.5 nM
COc1cc(S(=O)(=O)c2ccc(CNC(=O)c3ccc4nccn4c3)cc2)ccc1Cl |  | 6 nM | 13.5 nM | 
O=C(NCc1ccc(S(=O)(=O)c2ccc(Cl)cc2C(F)(F)F)cc1)c1cc2cnccc2[nH]1 | 42.2 nM | 17.4 nM |  | 
COc1cccc(C)c1NS(=O)(=O)c1ccc(CNC(=O)c2cc3cnccc3[nH]2)cc1 [N-({4-[(2-methoxy-6-methylphenyl)sulfamoyl]phenyl}methyl)-1H-pyrrolo[3,2-c]pyridine-2-carboxamide] |  |  | 6 nM | 12400 nM
